Reference: patent US20040235163A1, “Myocardial cell apoptosis inhibitors” (priority 2001, published 2004)

Columns and labels:
[1] = test system: neonatal rat ventricular myocytes (NRVMs); assay: H2O2-induced apoptosis in cultured cardiac myocytes, flow cytometry (Sub-G1 peak); type: cell-based
[2] = test system: neonatal rat ventricular myocytes (NRVMs); assay: Calcium ionophore A23187-induced apoptosis in cultured cardiac myocytes, flow cytometry; type: cell-based
Experimental: Cultured neonatal rat ventricular myocytes (NRVMs) were provided as cardiac myocytes used in the experiments. More specifically, hearts were extracted from 0- to 1-day-old neonatal rats (Wister, pregnant rats were purchased from Chubu Shizai). The ventricles of each heart were then treated with collagenase Type 2 (Worthington) and pancreatin (Sigma) to enzymatically isolate cardiac myocytes (collagenase 0.5 mg/ml, pancreatin 0.6 mg/ml, 4 treatments), followed by primary culture. After the enzymatically collected cells were seeded in plates and allowed to stand for 30 minutes, non-adhesive cells were collected to remove fibroblasts. The resulting cardiac myocytes were seeded at a density of 1×10^5 cells/cm^2 on 6-well plates or 75 cm^2 flasks pre-coated with 1% gelatin and then cultured at 37° C. under 5% CO2 for 48 hours in a medium consisting of DMEM/Medium 199 (4:1), 10% fetal bovine serum (FBS, Sigma), 0.1 mM bromodeoxyuridine (BrdU, Roche), penicillin (50 units/ml, GIBCO) and streptomycin (50 μg/ml, GIBCO). Culturing was carried out in a CO2 incubator under conditions of 37° C. The medium was then replaced with a serum-free medium which had been prepared from the same ingredients other than FBS and supplemented with insulin-transferrin-selenium (ITS, GIBCO). These cells were provided for experiments 24 hours after replacement with the serum-free medium. After immunocytostaining with a cardiac myocytespecific antibody (α-actinin antibody), the percentage of cardiac myocytes was measured by microscopy to confirm that 90% or more of the cells were cardiac myocytes at that stage.
Flow cytometry analysis was performed using a Coulter EPICSXL and a software package specific for this purpose. After collection of floating cardiac myocytes from the cell culture (1×10^6 cells/well), adhered cardiac myocytes were trypsinated and collected in the same tube. […] Propidium iodide (250 μL, 25 μg/ml, Sigma) was added to and suspended well in the cell suspension, which was then allowed to stand at room temperature for 20 minutes or more and analyzed by flow cytometry. Cells showing a Sub-G1 peak in nuclear staining with propidium iodide were counted as apoptotic cells to calculate the percentage of cells showing a Sub-G1 peak relative to the total cell count measured (1×10^4 cells). The calculated percentage was defined as the percentage of apoptotic cells.
(§1) Calcium ionophore A23187 (Sigma) was added at a final concentration of 5×10^−6 M to the cell culture of cardiac myocytes prepared as described in Example 1. The cells were cultured as described in Example 1 and analyzed to determine the percentage of apoptotic cells. […]

[3] = test system: cardiac myocytes; assay: Apoptosis in cardiac myocytes measured as in Examples 1 and 2, modulators of the nicorandil effect; type: cell-based, rat
Experimental: Flow cytometry analysis was performed using a Coulter EPICSXL and a software package specific for this purpose. After collection of floating cardiac myocytes from the cell culture (1×10^6 cells/well), adhered cardiac myocytes were trypsinated and collected in the same tube. After centrifugation, the pellet was washed with PBS, supplemented with 70% EtOH, and then allowed to stand at room temperature for 20 minutes or more to fix the cells. After fixation, the cells were washed with PBS, re-suspended in 1 ml PBS and then reacted with 50 μL RNase (1 mg/ml, Sigma) at 37° C. for 40 minutes. After the cells were allowed to stand at room temperature (if necessary), they were washed with PBS and suspended in about 250 μL PBS to prepare a cell suspension. Propidium iodide (250 μL, 25 μg/ml, Sigma) was added to and suspended well in the cell suspension, which was then allowed to stand at room temperature for 20 minutes or more and analyzed by flow cytometry. Cells showing a Sub-G1 peak in nuclear staining with propidium iodide were counted as apoptotic cells to calculate the percentage of cells showing a Sub-G1 peak relative to the total cell count measured (1×10^4 cells). The calculated percentage was defined as the percentage of apoptotic cells.
H2O2 (Sigma) was added at a final concentration of 1×10^−4 M to the cell culture of cardiac myocytes prepared as described above (final density: 1×10^6 cells/2 ml/well), followed by culturing for 16 hours in a CO2 incubator. The cells were collected and analyzed by flow cytometory to determine the percentage of apoptotic cells. Nicorandil was also added at a final concentration of 1×10^−4 M immediately before H2O2 addition. […]
as §1
Apoptosis in cardiac myocytes was measured as described in Examples 1 and 2.

[4] = test system: Bad protein (phospho-Bad Ser-136); assay: Western blot analysis of Bad phosphorylation in apoptotic cardiac myocytes; type: cell-based, rat; details: pre-treatment with nicorandil, apoptotic cells induced by H2O2 or A23187
Experimental: Both floating and adhered cardiac myocytes were collected and lysed at 4° C. for 1 hour in a lysis buffer consisting of 20 mM Tris-HCl (pH 7.5), 2 mM EDTA, 3 mM EGTA, 2 mM DTT, 250 mM sucrose, 1% Triton X-100, 10 μg/ml aprotinin, 10 μM leupeptin and 0.1 mM PMSF. The resulting cell lysate was measured for its protein level by the Bradford method, solubilized in 2× sample buffer and then boiled at 95° C. for 3 minutes. After each lane was loaded with 50 μg sample and electrophoresed on a 12.5% SDS-polyacrylamide gel, the gel was transferred to a PVDF membrane. The blots were blocked overnight in 3% BSA/0.1% Tween-20 in PBS and then detected with the following primary antibodies: rabbit polyclonal Bcl-2 antibody (Pharmingen), rabbit polyclonal Bax antibody (Pharmingen), mouse monoclonal p53 antibody (Calbiochem), mouse monoclonal poly(ADP-ribose) polymerase (PARP) antibody (Clontech) and rabbit polyclonal CPP32 antibody (Santa Cruz). […]
Both floating and adhered cardiac myocytes were collected from 75 cm^2 flasks and lysed in 0.5 mL lysis buffer consisting of 10 mM Tris-HCl (pH 7.4), 1 mM EDTA, 1 mM EGTA (pH 8.0), 150 mM NaCl, 1% Triton X-100, 0.2 mM sodium ortho-vanadate, 0.2 mM PMSF and 0.5% NP-40. […] The total Bad content was determined by probing with a rabbit polyclonal Bad antibody (New England Biolabs). […]

[5] = test system: animal models of ischemic reperfusion; details: cited from earlier work
[6] = test system: Neonatal rat cardiac myocytes; assay: JC-1 mitochondrial membrane potential, confocal microscopy, H2O2 stimulation; type: cell-based; details: pre-treatment with nicorandil 100 μmol/L; H2O2 200 μmol/L, 20 min
Description: A fluorescent probe JC-1, a detection reagent for mitochondrial membrane potential, was used to confirm that nicorandil inhibited apoptosis in cardiac myocytes stimulated by H2O2. In most cases of cellular apoptosis, cytochrome C is translocated from mitochondrial membrane to cytosol, during which loss of mitochondrial membrane potential is known. Since JC-1 is a cationic fluorescent substance, it easily enters cells and emits red fluorescence (λem=590 nm) in normal cell mitochondria through formation of polymers called J-aggregates. […] Neonatal rat cardiac myocytes were seeded at a density of 1×10^6 cells/well in 35 mm dishes with glass bottoms (IWAKI) and cultured at 37° C. for 10 minutes in serum-free DMEM/F12 medium containing 10 μg/mL JC-1 (Wako Pure Chemical Industries, Ltd.). The cells on the dishes were observed using a confocal laser scanning microscope and a 20× objective lens. Fluorescence was excited by the 488 nm line of an argon laser and the 543 nm line of a helium-neon laser.

Compound: OO [H2O2, hydrogen peroxide]
- percentage of apoptotic cells ([1]; 1×10^−4 M H2O2, 16 hours, 10% or less in the absence of H2O2): more than 70%

Compound: CCCCCC(O)CCCC(=O)O (stereo not drawn) [5-hydroxydecanoate]
- effect on the anti-apoptotic effect of nicorandil (H2O2-induced apoptosis) ([1]; 5-hydroxydecanoate 5×10^−4 M + nicorandil 1×10^−4 M + H2O2 1×10^−4 M): partially blocked
- effect on the anti-apoptotic effect of nicorandil (A23187-induced apoptosis) ([2]; 5-hydroxydecanoate 5×10^−4 M + nicorandil 1×10^−4 M + A23187 5×10^−6 M): completely blocked

Compound: COc1ccc(Cl)cc1C(=O)NCCc1ccc(S(=O)(=O)NC(=O)NC2CCCCC2)cc1 [glibenclamide]
- effect on the anti-apoptotic effect of nicorandil (H2O2-induced apoptosis) ([1]; glibenclamide 1×10^−5 M + nicorandil + H2O2 1×10^−4 M): completely blocked

Compound: nitroprusside
- effect on the anti-apoptotic effect of nicorandil ([3]; nitroprusside final concentration 10^−4 M): enhanced

Compound: ZVAD
- block of the pro-apoptosis effect of A23187 ([2]; ZVAD 1×10^−5 M, A23187 5×10^−6 M): around 50%

Compound: COc1ccc2c(c[n+](C)c3c4cc5c(cc4ccc23)OCO5)c1OC [chelerythrine]
- effect on the anti-apoptotic effect of nicorandil ([3]; chelerythrine final concentration 10^−6 M): completely disappeared

Compound: O=C(NCCO[N+](=O)[O-])c1cccnc1 [nicorandil, N-(2-hydroxyethyl)nicotinamide nitrate ester]
- phosphorylation level of Bad [4]: increase the phosphorylation level of Bad
- infarct size [5]: decrease infarct size
- inhibition of H2O2-induced apoptosis ([1]; 1×10^−4 M nicorandil added immediately before 1×10^−4 M H2O2, 16 hours): significantly inhibited to the control level
- inhibition at 100 µM ([1]; Rattus norvegicus, Ventricular myocyte, pre-treatment with nicorandil 10^−4 M, read-out: inhibition of NRVM apoptosis induced by H2O2): 60%
- JC-1 green fluorescence (loss of mitochondrial membrane potential) upon H2O2 stimulation [6]: inhibit such green fluorescence
- inhibition at 100 µM ([2]; Rattus norvegicus, Ventricular myocyte, nicorandil 1×10^−4 M, A23187 5×10^−6 M, read-out: block / inhibition of apoptosis induced by calcium ionophore A23187): ~50%

Compound: COC(=O)[C@@H](N)CCCNC(=N)N[N+](=O)[O-] [L-NAME, N^G-nitro L-arginine methyl ester]
- effect on the anti-apoptotic effect of nicorandil ([3]; L-NAME final concentration 10^−6 M): partially blocked

Compound: CNc1ccc2oc(C[C@H]3O[C@@]4(CC[C@H]3C)O[C@H]([C@H](C)C(=O)c3ccc[nH]3)[C@H](C)C[C@H]4C)nc2c1C(=O)O [A23187]
- induction of apoptosis ([2]; A23187 5×10^−6 M): induced apoptosis significantly
